Laboratory results from patent US20070219180A1, “Muscle Relaxtion Accelerator and Therapeutic Agent for Muscular Tissue Diseases Such as Muscle Relaxation Failure” (priority 2004, published 2007).
Where “and” joins values, the source holds several entries; their conditions need not be identical. Identical values can stand only once.

How the values were obtained:
[1] = tested on: male Wistar rats; test: Experiment 12: effect on myocardial microcirculation (microsphere myocardial tissue blood flow rate); assay type: in vivo, rat
Experimental: The effects of the compound on myocardial microcirculation were examined. In this experiment, the 1-hydrochloride of the compound, 4-[3-(4-benzylpiperidin-1-yl)propionyl]-7-methoxy-2,3,4,5-tetrahydro-1,4-benzothiazepine 1-hydrochloride (hereinafter called the compound) was used as the 1,4-benzothiazepine derivative or pharmaceutically acceptable salt thereof.
Four 8-week old male Wistar rats weighing 300-310 g were used in the study. The rats were anesthetized with 1,000 mg/kg of urethane and 80 mg/kg of α-chloralose by subperitoneal injection under artificial respiration (Harvard) using endotracheal intubation. In this experiment, 100 mg of the compound was dissolved in 1 ml of dimethylsulfoxide (DMSO) and the resulting DMSO solution of the compound was stored at 4° C. Norepinephrine solution was prepared by dissolving 1 mg of norepinephrine in 41 μl of distilled water, at an infusion speed of 30 μg/kg/min.
Firstly, continuous infusion catheters of calcium chloride solution or norepinephrine solution containing calcium chloride were inserted into the right external jugular veins of the rats, and 2F polyethylene catheters for microspheres were inserted into the left ventricles via the right common arteries. In addition, test drug infusion catheters were inserted into the right femoral veins.
A 1-lead electrocardiogram and the left ventricular pressure were recorded simultaneously on a personal computer via an A/D converter. In the preparation step, blood pressure, pulse, and electrocardiogram of the rats were monitored for 15 minutes and allowed to stabilize, and then 5% dextrose solution containing calcium chloride (at a concentration based on the weight of the rat) was infused into the right external jugular vein for 20 minutes at 16.6 μl/min (12 mg/kg/min of calcium chloride). Next, norepinephrine solution containing calcium chloride without changes in dosage regimen was immediately injected at a rate of 30 μg/kg/min via the right external jugular vein. After the start of administration, calcium chloride and norepinephrine were then continuously injected in the form of a norepinephrine solution containing calcium chloride. With continuous injection of calcium chloride via the right external jugular vein, 5% dextrose solution containing 0.1% DMSO solution was administered via the right femoral vein to Control A rat weighing 310 g (to which the compound was not administered) and to Control B rat weighing 300 g (to which the compound was not administered), 5 minutes before commencement of injection (intravenous injection) of the norepinephrine solution containing calcium chloride. In addition, with continuous injection of calcium chloride via the right external jugular vein, a 5% dextrose solution of the compound was continuously administered to Test 15 rat weighing 300 g and Test 16 rat weighing 300 g for 3 minutes at a rate of 0.33 mg/kg/min and subsequently for 25 minutes at a rate of 0.01 mg/kg/min, 5 minutes before commencement of injection (intravenous injection) of the norepinephrine solution containing calcium chloride via the right external jugular vein. The infusion rate was 0.5 ml/3 minutes for the first 3 minutes and then 0.05 ml/3 minutes.
Myocardial tissue blood flow rate was measured twice using microspheres, 5 minutes before the start of calcium chloride administration and 20 minutes after the start of administration of norepinephrine solution containing calcium chloride. […]

[2] = tested on: male Wistar rats; test: Experiment 3: left ventricular diastolic function by tissue Doppler imaging; assay type: in vivo, rat; details: 0.3 mg/kg i.v. over 30 s then 0.02 mg/kg/min for 20 min
Experimental: In this experiment on the invention, two 9-week old male Wistar rats weighing 310 and 320 g were used. The rats were anesthetized with 1,000 mg/kg of urethane and 80 mg/kg of α-chloralose by subperitoneal injection, and natural respiration was maintained. In this experiment, 100 mg of the compound was dissolved in 1 ml of dimethylsulfoxide (DMSO) and the resulting DMSO solution was stored at 4° C. Norepinephrine solution was prepared by dissolving 1 mg of norepinephrine in 41 μl of distilled water.
Similarly to Test drug 1, this study was performed at room temperature of 20 to 25° C., and also similarly to Test drug 1, continuous infusion catheters of calcium chloride solution or norepinephrine solution containing calcium chloride were inserted into the right external jugular vein and microchip catheters (SPC-320, Millar) were inserted into the aorta via the right common arteries.
A 1-lead electrocardiogram was recorded, and blood pressure, pulse, and electrocardiogram of the rats were monitored for 15 minutes and allowed to stabilize. In the preparation step, calcium chloride dissolved in 5% dextrose solution was infused into the right external jugular vein for 25 minutes at 16.6 μl/min (9.0 mg/kg/min of calcium chloride).
Secondly, immediate injection (intravenous injection) of a solution containing calcium chloride and norepinephrine without changes in dosage was started via the right external jugular vein at a rate of 40 μg/kg/min. After the start of administration, calcium chloride and norepinephrine were continuously injected in the form of a norepinephrine solution containing calcium chloride. Furthermore, with continuous injection of calcium chloride and norepinephrine (in the form of a norepinephrine solution containing calcium chloride), 0.2 ml of 1% DSMO was administered alone over 30 seconds to the first rat (weight: 310 g) as a control via the right femoral vein, 5 minutes after commencement of intravenous injection of calcium chloride and norepinephrine (in the form of a norepinephrine solution containing calcium chloride); this rat was defined as Control 4. Similarly to Control 4, with continuous injection of calcium chloride and norepinephrine (in the form of a norepinephrine solution containing calcium chloride) 0.2 ml of 1% DSMO solution containing 0.3 mg/kg of the test drug in the invention was administered over 30 seconds to a second rat (weight: 320 g; Test drug 3) via its right femoral vein, followed by administration for 20 minutes at 0.02 mg/kg/min, 5 minutes after intravenous injection of calcium chloride and norepinephrine (in the form of a norepinephrine solution containing calcium chloride). The left ventricular diastolic function of each rat was examined using tissue Doppler ultrasonography. Ultrasonic diagnostic equipment (Toshiba Powervision SSA-380APSK-70LT, Toshiba Corporation) was used and the rats were examined using ultrasound at 10 MHz. Firstly, the precordial region of each rat was shaved, and an ECHO probe was placed on the cardiac apex. The long axis of the left ventricle of the cardiac apex was imaged, a sample volume for pulsed-wave Doppler was established at the base of the posterior mitral leaflet, and the velocity of the left ventricular posterior wall motion [Ea wave (m/sec)] was measured at diastole as the left ventricular diastolic function. In this experiment, the left ventricular diastolic function is defined as the ratio of the velocity of the left ventricular wall motion at diastole before intravenous injection of norepinephrine (before administration; i.e. a normal left ventricular wall) determined using tissue Doppler imaging, or the ratio of the velocity of the left ventricular wall motion at diastole after intravenous injection of norepinephrine (after administration).

## COc1ccc2c(c1)CN(C(=O)CCN1CCC(Cc3ccccc3)CC1)CCS2 [the compound, 4-[3-(4-benzylpiperidine-1-yl)propionyl]-7-methoxy-2,3,4,5-tetrahydro-1,4-benzothiazepine]
[1]; 5 minutes before the start of CaCl2 administration (baseline), compound later 0.33 mg/kg/min 3 min then 0.01 mg/kg/min 25 min
  Myocardial tissue blood flow rate: 4.6 mL/min/g and 4.3 mL/min/g
[1]; 5 minutes before the start of CaCl2 administration (defined as 100%)
  Myocardial tissue blood flow rate, ratio to 5 minutes before CaCl2: 100%
[1]; 20 minutes after the start of norepinephrine containing CaCl2
  Decrease in myocardial tissue blood flow under diastolic dysfunction with administration of the compound: ≤ 30%
[1]; 20 minutes after the start of norepinephrine solution containing CaCl2, compound 0.33 mg/kg/min 3 min then 0.01 mg/kg/min 25 min
  Myocardial tissue blood flow rate, ratio to 5 minutes before CaCl2: 70% and 98%
[1]; 20 minutes after the start of norepinephrine solution containing CaCl2, compound 0.33 mg/kg/min 3 min then 0.01 mg/kg/min 25 min, from 5 min before norepinephrine
  Myocardial tissue blood flow rate: 3.2 mL/min/g and 4.2 mL/min/g
[2]; 0 minutes (just before the start of intravenous injection of the test drug)
  Ratio of the velocity of the left ventricular wall motion at diastole: 1.00
[2]; CaCl2 + norepinephrine infusion, 5 minutes after the start of test drug
  Ratio of the velocity of the left ventricular wall motion at diastole: 1.02
[2]; CaCl2 + norepinephrine infusion, 10 minutes after the start of test drug
  Ratio of the velocity of the left ventricular wall motion at diastole: 1.04
[2]; CaCl2 + norepinephrine infusion, 15 minutes after the start of test drug
  Ratio of the velocity of the left ventricular wall motion at diastole: 1.00
[2]; CaCl2 + norepinephrine infusion, 20 minutes after the start of test drug
  Ratio of the velocity of the left ventricular wall motion at diastole: 1.00
[2]; CaCl2 + norepinephrine infusion, 25 minutes after the start of test drug
  Ratio of the velocity of the left ventricular wall motion at diastole: 0.94
[2]; CaCl2 + norepinephrine infusion, 30 minutes after the start of test drug
  Ratio of the velocity of the left ventricular wall motion at diastole: 0.95
[2]; Ea wave relative to before norepinephrine, 5 minutes before test drug (just before the start of norepinephrine), baseline
  Ratio of the velocity of the left ventricular wall motion at diastole: 1.00
